Laboratory results published in PubChem BioAssay AID1963962 (Molecular Pharmacology Branch, DTP, NCI, 2024).
Blank lines part the entries; values can stand above or below the molecule they belong to.

System: 967376-340-R-J2-PDC multicell spheroid viability
Assay: Anticancer human tumor 967376-340-R-J2-PDC patient-derived colon adenocarcinoma cell line growth inhibition [PI3K]
Conditions: for IC50: curve of first compound; for viability, T/C: stronger effect = lower value
In short: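 Spheroid viability read-out. Co-cultures contained the tumor line plus HUVEC and human MSCs. Each agent was paired with a PI3K inhibitor (inavolisib, alpelisib, duvelisib, copanlisib) across half-log dilutions starting at clinical Cmax, or at 10 microM when Cmax was unknown.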

[1] = second compound 0.00316 µM, first compound 0.0316 µM
[2] = second compound 0.00316 µM, first compound 0.1 µM
[3] = second compound 0.00316 µM, first compound 0.316 µM
[4] = second compound 0.00316 µM, first compound 1 µM
[5] = second compound 0.00316 µM, first compound 3.16 µM
[6] = second compound 0.00316 µM, first compound 10 µM
[7] = second compound 0.01 µM, first compound 0.0316 µM
[8] = second compound 0.01 µM, first compound 0.1 µM
[9] = second compound 0.01 µM, first compound 0.316 µM
[10] = second compound 0.01 µM, first compound 1 µM
[11] = second compound 0.01 µM, first compound 3.16 µM
[12] = second compound 0.01 µM, first compound 10 µM
[13] = second compound 0.0316 µM, first compound 0.0316 µM
[14] = second compound 0.0316 µM, first compound 0.1 µM
[15] = second compound 0.0316 µM, first compound 0.316 µM
[16] = second compound 0.0316 µM, first compound 1 µM
[17] = second compound 0.0316 µM, first compound 3.16 µM
[18] = second compound 0.0316 µM, first compound 10 µM
[19] = second compound 0.1 µM, first compound 0.0316 µM
[20] = second compound 0.1 µM, first compound 0.1 µM
[21] = second compound 0.1 µM, first compound 0.316 µM
[22] = second compound 0.1 µM, first compound 1 µM
[23] = second compound 0.1 µM, first compound 3.16 µM
[24] = second compound 0.1 µM, first compound 10 µM
[25] = second compound 0.316 µM, first compound 0.0316 µM
[26] = second compound 0.316 µM, first compound 0.1 µM
[27] = second compound 0.316 µM, first compound 0.316 µM
[28] = second compound 0.316 µM, first compound 1 µM
[29] = second compound 0.316 µM, first compound 3.16 µM
[30] = second compound 0.316 µM, first compound 10 µM
[31] = second compound 1 µM, first compound 0.0316 µM
[32] = second compound 1 µM, first compound 0.1 µM
[33] = second compound 1 µM, first compound 0.316 µM
[34] = second compound 1 µM, first compound 1 µM
[35] = second compound 1 µM, first compound 3.16 µM
[36] = second compound 1 µM, first compound 10 µM
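Also: spheroids exposed to agents for 7 days before read-out.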
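For viability, T/C in this document: luminescence used as surrogate of cell viability.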

IC50 (second compound 0.00316 µM): > 10 µM
IC50 (second compound 0.01 µM): > 10 µM
IC50 (second compound 0.0316 µM): > 10 µM
IC50 (second compound 0.1 µM): 1.21 µM
IC50 (second compound 0.316 µM): 3.64 µM
IC50 (second compound 1 µM): < 0.0316 µM
Compound: C#Cc1c(F)ccc2cc(O)cc(-c3ncc4c(N5CC6CCC(C5)N6)nc(OCC56CCCN5CC(F)C6)nc4c3F)c12 (centres undefined) + COc1c(OCCCN2CCOCC2)ccc2c3n(c(=NC(=O)c4cnc(N)nc4)nc12)CCN3
viability, T/C [1]: 89%
viability, T/C [2]: 99.1%
viability, T/C [3]: 101%
viability, T/C [4]: 109%
viability, T/C [5]: 91.8%
viability, T/C [6]: 84.7%
viability, T/C [7]: 94.2%
viability, T/C [8]: 102%
viability, T/C [9]: 79.2%
viability, T/C [10]: 91.6%
viability, T/C [11]: 77.9%
viability, T/C [12]: 62.9%
viability, T/C [13]: 83%
viability, T/C [14]: 82.5%
viability, T/C [15]: 81.5%
viability, T/C [16]: 77.1%
viability, T/C [17]: 81.8%
viability, T/C [18]: 57.3%
viability, T/C [19]: 68.4%
viability, T/C [20]: 61.8%
viability, T/C [21]: 58.1%
viability, T/C [22]: 48.8%
viability, T/C [23]: 47.1%
viability, T/C [24]: 49%
viability, T/C [25]: 56.1%
viability, T/C [26]: 48.2%
viability, T/C [27]: 53.7%
viability, T/C [28]: 42.3%
viability, T/C [29]: 63.6%
viability, T/C [30]: 29.8%
viability, T/C [31]: 42.9%
viability, T/C [32]: 40.9%
viability, T/C [33]: 44.2%
viability, T/C [34]: 40%
viability, T/C [35]: 40.7%
viability, T/C [36]: 18.6%

IC50 (second compound 0.00316 µM): > 10 µM
IC50 (second compound 0.01 µM): > 10 µM
IC50 (second compound 0.0316 µM): > 10 µM
IC50 (second compound 0.1 µM): > 10 µM
IC50 (second compound 0.316 µM): 0.0954 µM
IC50 (second compound 1 µM): < 0.0316 µM
Compound: CC(Cn1ccc(-c2ccc(C#N)c(Cl)c2)n1)NC(=O)c1cc(C(C)O)[nH]n1 (centres undefined) + COc1c(OCCCN2CCOCC2)ccc2c3n(c(=NC(=O)c4cnc(N)nc4)nc12)CCN3
viability, T/C [1]: 109%
viability, T/C [2]: 117%
viability, T/C [3]: 79.6%
viability, T/C [4]: 93.6%
viability, T/C [5]: 110%
viability, T/C [6]: 86%
viability, T/C [7]: 91.2%
viability, T/C [8]: 77%
viability, T/C [9]: 76.8%
viability, T/C [10]: 91.6%
viability, T/C [11]: 82.7%
viability, T/C [12]: 86.1%
viability, T/C [13]: 81.7%
viability, T/C [14]: 88.1%
viability, T/C [15]: 61.9%
viability, T/C [16]: 57.7%
viability, T/C [17]: 76.4%
viability, T/C [18]: 63.8%
viability, T/C [19]: 78.6%
viability, T/C [20]: 54.4%
viability, T/C [21]: 59.4%
viability, T/C [22]: 67.5%
viability, T/C [23]: 70.5%
viability, T/C [24]: 59.5%
viability, T/C [25]: 64.2%
viability, T/C [26]: 44.9%
viability, T/C [27]: 48.2%
viability, T/C [28]: 46.1%
viability, T/C [29]: 57.4%
viability, T/C [30]: 50.3%
viability, T/C [31]: 36.6%
viability, T/C [32]: 42.4%
viability, T/C [33]: 26.6%
viability, T/C [34]: 47.1%
viability, T/C [35]: 34.4%
viability, T/C [36]: 32.6%
